From patent publication EP4745137A1 (Gluetacs Therapeutics (Shanghai) Co., Ltd., priority 2023, dated 2025)

Columns and labels:
Assay type in all cases: cell-based
Conditions in all cases: 24 hours of compound treatment, 50 nM and 500 nM tested (concentration behind the class not stated)
GSPT1 = biological target: T1, GSPT1 (Homo sapiens, UniProt P15170+Q96SW2); assay: Western-blot assay of substrate protein degradation in hPBMCs, GSPT1
T1 construct: endogenous in cells; host or cells: hPBMCs (Milecell Biotechnologies)
T1 sequence (P15170 whole entry): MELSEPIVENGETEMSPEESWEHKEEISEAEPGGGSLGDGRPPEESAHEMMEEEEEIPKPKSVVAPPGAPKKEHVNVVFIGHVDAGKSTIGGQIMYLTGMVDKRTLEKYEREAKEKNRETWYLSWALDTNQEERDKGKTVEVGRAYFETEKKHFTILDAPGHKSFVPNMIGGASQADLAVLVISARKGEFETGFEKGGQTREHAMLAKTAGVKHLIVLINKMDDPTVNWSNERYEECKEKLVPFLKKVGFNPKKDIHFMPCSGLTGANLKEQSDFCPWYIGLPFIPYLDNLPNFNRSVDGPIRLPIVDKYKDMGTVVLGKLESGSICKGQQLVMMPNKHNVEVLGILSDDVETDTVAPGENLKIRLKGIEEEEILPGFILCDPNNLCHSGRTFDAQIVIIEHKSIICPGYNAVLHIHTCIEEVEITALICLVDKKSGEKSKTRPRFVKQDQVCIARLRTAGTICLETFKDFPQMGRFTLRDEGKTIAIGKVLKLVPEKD
T1 sequence (Q96SW2 whole entry): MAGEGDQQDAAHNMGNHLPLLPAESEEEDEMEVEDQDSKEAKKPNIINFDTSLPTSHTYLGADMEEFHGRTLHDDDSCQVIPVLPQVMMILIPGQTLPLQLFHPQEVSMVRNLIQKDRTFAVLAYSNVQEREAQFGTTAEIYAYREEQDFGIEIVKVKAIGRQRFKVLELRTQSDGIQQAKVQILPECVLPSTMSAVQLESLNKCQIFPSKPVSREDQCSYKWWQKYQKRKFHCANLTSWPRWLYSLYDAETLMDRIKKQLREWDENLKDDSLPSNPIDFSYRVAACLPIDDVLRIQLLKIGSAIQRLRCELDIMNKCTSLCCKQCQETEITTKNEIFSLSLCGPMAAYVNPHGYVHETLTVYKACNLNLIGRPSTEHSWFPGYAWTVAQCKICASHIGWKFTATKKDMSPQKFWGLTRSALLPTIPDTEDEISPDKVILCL
T1 sequence (Q16531 whole entry partner): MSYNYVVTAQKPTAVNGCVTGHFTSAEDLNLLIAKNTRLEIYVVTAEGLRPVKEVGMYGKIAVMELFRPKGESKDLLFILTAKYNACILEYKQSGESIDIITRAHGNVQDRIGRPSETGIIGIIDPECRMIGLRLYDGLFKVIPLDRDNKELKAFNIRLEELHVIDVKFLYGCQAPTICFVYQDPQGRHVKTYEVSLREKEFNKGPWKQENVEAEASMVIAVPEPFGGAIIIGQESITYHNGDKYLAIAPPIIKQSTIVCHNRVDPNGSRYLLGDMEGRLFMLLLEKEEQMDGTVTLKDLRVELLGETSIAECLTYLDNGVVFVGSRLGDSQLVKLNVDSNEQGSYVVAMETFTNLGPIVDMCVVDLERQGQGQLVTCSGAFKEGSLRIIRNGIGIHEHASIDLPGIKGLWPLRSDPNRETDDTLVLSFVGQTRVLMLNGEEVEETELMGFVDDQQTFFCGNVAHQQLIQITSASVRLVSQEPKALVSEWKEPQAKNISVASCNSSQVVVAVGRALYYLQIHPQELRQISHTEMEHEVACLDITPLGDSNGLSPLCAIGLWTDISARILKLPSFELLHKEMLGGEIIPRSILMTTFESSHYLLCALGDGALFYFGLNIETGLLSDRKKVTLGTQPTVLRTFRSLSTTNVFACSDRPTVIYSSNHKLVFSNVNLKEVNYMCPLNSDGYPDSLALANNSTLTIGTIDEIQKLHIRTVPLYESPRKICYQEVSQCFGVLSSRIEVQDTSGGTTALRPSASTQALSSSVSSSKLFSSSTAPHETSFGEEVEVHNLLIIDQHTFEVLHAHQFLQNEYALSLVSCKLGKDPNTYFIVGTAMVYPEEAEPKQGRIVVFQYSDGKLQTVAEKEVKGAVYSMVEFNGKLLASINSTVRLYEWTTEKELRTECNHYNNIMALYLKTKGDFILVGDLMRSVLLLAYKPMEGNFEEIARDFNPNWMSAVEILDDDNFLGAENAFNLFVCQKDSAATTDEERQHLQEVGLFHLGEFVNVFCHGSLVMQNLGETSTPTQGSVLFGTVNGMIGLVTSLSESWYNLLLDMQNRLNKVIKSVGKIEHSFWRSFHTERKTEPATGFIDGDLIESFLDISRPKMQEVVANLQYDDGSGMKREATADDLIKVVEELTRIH

IKZF2 = biological target: T2, IKZF2 (Homo sapiens, UniProt Q96SW2+Q9UKS7); assay: Western-blot assay of substrate protein degradation in hPBMCs, IKZF2
T2 construct: endogenous in cells; host or cells: hPBMCs (Milecell Biotechnologies)
T2 sequence (Q9UKS7 whole entry): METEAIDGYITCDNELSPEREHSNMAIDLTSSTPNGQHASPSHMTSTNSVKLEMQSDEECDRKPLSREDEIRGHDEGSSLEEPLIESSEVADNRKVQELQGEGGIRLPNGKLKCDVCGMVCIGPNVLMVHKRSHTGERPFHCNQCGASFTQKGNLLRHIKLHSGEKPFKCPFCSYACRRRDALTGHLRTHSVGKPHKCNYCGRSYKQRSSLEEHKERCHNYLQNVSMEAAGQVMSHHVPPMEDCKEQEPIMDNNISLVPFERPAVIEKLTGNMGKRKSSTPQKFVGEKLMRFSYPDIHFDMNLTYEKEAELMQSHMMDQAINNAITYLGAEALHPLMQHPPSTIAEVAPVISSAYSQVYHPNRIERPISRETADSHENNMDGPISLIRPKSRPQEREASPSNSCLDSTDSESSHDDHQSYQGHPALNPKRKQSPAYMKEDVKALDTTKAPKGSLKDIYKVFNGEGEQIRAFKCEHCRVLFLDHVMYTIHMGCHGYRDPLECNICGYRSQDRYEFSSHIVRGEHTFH
T2 sequence (Q96SW2 whole entry): as the sequence (Q96SW2 whole entry) above
T2 sequence (Q16531 whole entry partner): as the sequence (Q16531 whole entry partner) above

WEE1 = biological target: T3, WEE1 (Homo sapiens, UniProt P30291+Q96SW2); assay: Western-blot assay of substrate protein degradation in hPBMCs, WEE1
T3 construct: endogenous in cells; host or cells: hPBMCs (Milecell Biotechnologies)

IKZF3 = biological target: T4, IKZF3 (Homo sapiens, UniProt Q96SW2+Q9UKT9); assay: Western-blot assay of substrate protein degradation in hPBMCs, IKZF3
T4 construct: endogenous in cells; host or cells: hPBMCs (Milecell Biotechnologies)
T4 sequence (Q9UKT9 whole entry): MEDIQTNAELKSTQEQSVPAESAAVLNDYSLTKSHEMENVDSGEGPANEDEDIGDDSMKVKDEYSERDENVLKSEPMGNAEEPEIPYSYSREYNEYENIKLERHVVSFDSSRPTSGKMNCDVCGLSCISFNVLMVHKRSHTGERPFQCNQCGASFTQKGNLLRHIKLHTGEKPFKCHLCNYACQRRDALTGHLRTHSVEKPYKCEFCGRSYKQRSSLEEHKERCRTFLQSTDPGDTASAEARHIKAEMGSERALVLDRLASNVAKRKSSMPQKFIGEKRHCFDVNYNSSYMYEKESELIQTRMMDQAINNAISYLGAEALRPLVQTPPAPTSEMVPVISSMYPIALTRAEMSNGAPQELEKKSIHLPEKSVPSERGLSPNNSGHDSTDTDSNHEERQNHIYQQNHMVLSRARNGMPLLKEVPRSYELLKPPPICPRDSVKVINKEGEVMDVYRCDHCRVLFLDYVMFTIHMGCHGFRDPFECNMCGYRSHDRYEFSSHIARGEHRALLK
T4 sequence (Q96SW2 whole entry): as the sequence (Q96SW2 whole entry) above
T4 sequence (Q16531 whole entry partner): as the sequence (Q16531 whole entry partner) above

IKZF1 = biological target: T5, IKZF1 (Homo sapiens, UniProt Q13422+Q96SW2); assay: Western-blot assay of substrate protein degradation in hPBMCs, IKZF1
T5 construct: endogenous in cells; host or cells: hPBMCs (Milecell Biotechnologies)
T5 sequence (Q13422 whole entry): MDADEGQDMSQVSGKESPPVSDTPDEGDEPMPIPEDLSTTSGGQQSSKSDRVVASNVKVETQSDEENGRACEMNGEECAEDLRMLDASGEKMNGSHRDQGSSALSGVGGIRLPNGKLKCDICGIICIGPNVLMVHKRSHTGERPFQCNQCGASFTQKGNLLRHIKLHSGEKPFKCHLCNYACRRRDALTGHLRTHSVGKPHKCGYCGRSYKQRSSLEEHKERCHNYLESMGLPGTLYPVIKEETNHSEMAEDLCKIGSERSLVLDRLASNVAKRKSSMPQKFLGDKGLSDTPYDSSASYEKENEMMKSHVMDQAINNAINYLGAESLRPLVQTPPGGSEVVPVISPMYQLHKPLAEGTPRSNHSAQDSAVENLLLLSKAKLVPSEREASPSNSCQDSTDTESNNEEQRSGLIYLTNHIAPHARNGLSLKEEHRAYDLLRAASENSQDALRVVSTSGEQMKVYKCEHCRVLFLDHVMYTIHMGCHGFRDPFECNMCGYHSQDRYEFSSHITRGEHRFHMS
T5 sequence (Q96SW2 whole entry): as the sequence (Q96SW2 whole entry) above
T5 sequence (Q16531 whole entry partner): as the sequence (Q16531 whole entry partner) above

CK1α = biological target: T6, CK1α (Homo sapiens, UniProt P48729+Q96SW2); assay: Western-blot assay of substrate protein degradation in hPBMCs, CK1α
T6 construct: endogenous in cells; host or cells: hPBMCs (Milecell Biotechnologies)
T6 sequence (P48729 whole entry): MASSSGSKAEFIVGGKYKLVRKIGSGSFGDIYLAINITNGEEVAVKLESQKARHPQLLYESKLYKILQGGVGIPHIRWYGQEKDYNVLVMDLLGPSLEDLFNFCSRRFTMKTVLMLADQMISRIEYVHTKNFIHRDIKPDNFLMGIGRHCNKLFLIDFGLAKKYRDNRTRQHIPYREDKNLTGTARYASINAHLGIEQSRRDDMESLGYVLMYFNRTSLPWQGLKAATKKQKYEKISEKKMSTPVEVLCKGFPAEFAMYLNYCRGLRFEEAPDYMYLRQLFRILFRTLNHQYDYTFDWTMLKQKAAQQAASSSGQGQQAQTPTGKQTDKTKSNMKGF
T6 sequence (Q96SW2 whole entry): as the sequence (Q96SW2 whole entry) above
T6 sequence (Q16531 whole entry partner): as the sequence (Q16531 whole entry partner) above

O=C1CCC(N2C(=O)c3ccc(CN4CCC(c5ccc(F)cc5)CC4)cc3C2=O)C(=O)N1 (stereo not drawn) [GT-06374, 2-(2,6-dioxopiperidin-3-yl)-5-((4-(4-fluorophenyl)piperidin-1-yl)methyl)isoindoline-1,3-dione]
GSPT1 substrate protein remaining % (GSPT1): A (0% ≤ substrate protein remaining % ≤ 80%) | IKZF2 substrate protein remaining % (IKZF2): A (0% ≤ substrate protein remaining % ≤ 80%) | Weel substrate protein remaining % (WEE1): A (0% ≤ substrate protein remaining % ≤ 80%) | IKZF3 substrate protein remaining % (IKZF3): B (80%< substrate protein remaining %≤ 100%) | IKZF 1 substrate protein remaining % (IKZF1): A (0% ≤ substrate protein remaining % ≤ 80%) | CK1a substrate protein remaining % (CK1α): B (80%< substrate protein remaining %≤ 100%)

O=C1CCC(N2C(=O)c3ccc(CN4CCC(c5ccccc5C(F)(F)F)CC4)cc3C2=O)C(=O)N1 (stereo not drawn) [GT-06375, 2-(2,6-dioxopiperidin-3-yl)-5-((4-(2-(trifluoromethyl)phenyl)piperidin-1-yl)methyl)isoindoline-1,3-dione]
GSPT1 substrate protein remaining % (GSPT1): A (0% ≤ substrate protein remaining % ≤ 80%) | IKZF2 substrate protein remaining % (IKZF2): A (0% ≤ substrate protein remaining % ≤ 80%) | Weel substrate protein remaining % (WEE1): A (0% ≤ substrate protein remaining % ≤ 80%) | IKZF3 substrate protein remaining % (IKZF3): B (80%< substrate protein remaining %≤ 100%) | IKZF 1 substrate protein remaining % (IKZF1): A (0% ≤ substrate protein remaining % ≤ 80%) | CK1a substrate protein remaining % (CK1α): B (80%< substrate protein remaining %≤ 100%)

O=C1CCC(N2C(=O)c3ccc(CN4CC=C(c5cccc(F)c5Cl)CC4)cc3C2=O)C(=O)N1 (stereo not drawn) [GT-06429, 5-((4-(2-chloro-3-fluorophenyl)-3,6-dihydropyridin-1(2H)-yl)methyl)-2-(2,6-dioxopiperidin-3-yl)isoindoline-1,3-dione]
GSPT1 substrate protein remaining % (GSPT1): A (0% ≤ substrate protein remaining % ≤ 80%) | IKZF2 substrate protein remaining % (IKZF2): A (0% ≤ substrate protein remaining % ≤ 80%) | Weel substrate protein remaining % (WEE1): A (0% ≤ substrate protein remaining % ≤ 80%) | IKZF3 substrate protein remaining % (IKZF3): A (0% ≤ substrate protein remaining % ≤ 80%) | IKZF 1 substrate protein remaining % (IKZF1): A (0% ≤ substrate protein remaining % ≤ 80%) | CK1a substrate protein remaining % (CK1α): A (0% ≤ substrate protein remaining % ≤ 80%)

O=C1CCC(N2C(=O)c3ccc(CN4CCN(c5ccccn5)CC4)cc3C2=O)C(=O)N1 (stereo not drawn) [GT-06521, 2-(2,6-dioxopiperidin-3-yl)-5-((4-(pyridin-2-yl)piperazin-1-yl)methyl)isoindoline-1,3-dione]
GSPT1 substrate protein remaining % (GSPT1): A (0% ≤ substrate protein remaining % ≤ 80%) | IKZF2 substrate protein remaining % (IKZF2): B (80%< substrate protein remaining %≤ 100%) | Weel substrate protein remaining % (WEE1): B (80%< substrate protein remaining %≤ 100%) | IKZF3 substrate protein remaining % (IKZF3): B (80%< substrate protein remaining %≤ 100%) | IKZF 1 substrate protein remaining % (IKZF1): B (80%< substrate protein remaining %≤ 100%) | CK1a substrate protein remaining % (CK1α): B (80%< substrate protein remaining %≤ 100%)

Cc1cccc(N2CCN(Cc3ccc4c(c3)C(=O)N(C3CCC(=O)NC3=O)C4=O)CC2)n1 (stereo not drawn) [GT-06522, 2-(2,6-dioxopiperidin-3-yl)-5-((4-(6-methylpyridin-2-yl)piperazin-1-yl)methyl)isoindoline-1,3-dione]
GSPT1 substrate protein remaining % (GSPT1): A (0% ≤ substrate protein remaining % ≤ 80%) | IKZF2 substrate protein remaining % (IKZF2): B (80%< substrate protein remaining %≤ 100%) | Weel substrate protein remaining % (WEE1): B (80%< substrate protein remaining %≤ 100%) | IKZF3 substrate protein remaining % (IKZF3): B (80%< substrate protein remaining %≤ 100%) | IKZF 1 substrate protein remaining % (IKZF1): B (80%< substrate protein remaining %≤ 100%) | CK1a substrate protein remaining % (CK1α): B (80%< substrate protein remaining %≤ 100%)

O=C1CCC(N2C(=O)c3ccc(CN4CCN(c5cccc(Cl)n5)CC4)cc3C2=O)C(=O)N1 (stereo not drawn) [GT-06523, 5-((4-(6-chloropyridin-2-yl)piperazin-1-yl)methyl)-2-(2,6-dioxopiperidin-3-yl)isoindoline-1,3-dione]
GSPT1 substrate protein remaining % (GSPT1): A (0% ≤ substrate protein remaining % ≤ 80%) | IKZF2 substrate protein remaining % (IKZF2): B (80%< substrate protein remaining %≤ 100%) | Weel substrate protein remaining % (WEE1): B (80%< substrate protein remaining %≤ 100%) | IKZF3 substrate protein remaining % (IKZF3): B (80%< substrate protein remaining %≤ 100%) | IKZF 1 substrate protein remaining % (IKZF1): A (0% ≤ substrate protein remaining % ≤ 80%) | CK1a substrate protein remaining % (CK1α): B (80%< substrate protein remaining %≤ 100%)

O=C1CCC(N2C(=O)c3ccc(CN4CCN(c5ccc(Cl)cn5)CC4)cc3C2=O)C(=O)N1 (stereo not drawn) [GT-06524, 5-((4-(5-chloropyridin-2-yl)piperazin-1-yl)methyl)-2-(2,6-dioxopiperidin-3-yl)isoindoline-1,3-dione]
GSPT1 substrate protein remaining % (GSPT1): A (0% ≤ substrate protein remaining % ≤ 80%) | IKZF2 substrate protein remaining % (IKZF2): B (80%< substrate protein remaining %≤ 100%) | Weel substrate protein remaining % (WEE1): B (80%< substrate protein remaining %≤ 100%) | IKZF3 substrate protein remaining % (IKZF3): B (80%< substrate protein remaining %≤ 100%) | IKZF 1 substrate protein remaining % (IKZF1): A (0% ≤ substrate protein remaining % ≤ 80%) | CK1a substrate protein remaining % (CK1α): B (80%< substrate protein remaining %≤ 100%)

O=C1CCC(N2C(=O)c3ccc(CN4CCN(c5cc(Cl)ccn5)CC4)cc3C2=O)C(=O)N1 (stereo not drawn) [GT-06525, 5-((4-(4-chloropyridin-2-yl)piperazin-1-yl)methyl)-2-(2,6-dioxopiperidin-3-yl)isoindoline-1,3-dione]
GSPT1 substrate protein remaining % (GSPT1): A (0% ≤ substrate protein remaining % ≤ 80%) | IKZF2 substrate protein remaining % (IKZF2): A (0% ≤ substrate protein remaining % ≤ 80%) | Weel substrate protein remaining % (WEE1): A (0% ≤ substrate protein remaining % ≤ 80%) | IKZF3 substrate protein remaining % (IKZF3): A (0% ≤ substrate protein remaining % ≤ 80%) | IKZF 1 substrate protein remaining % (IKZF1): B (80%< substrate protein remaining %≤ 100%) | CK1a substrate protein remaining % (CK1α): B (80%< substrate protein remaining %≤ 100%)

O=C1CCC(N2C(=O)c3ccc(CN4CCN(c5ncccc5F)CC4)cc3C2=O)C(=O)N1 (stereo not drawn) [GT-06526, 2-(2,6-dioxopiperidin-3-yl)-5-((4-(3-fluoropyridin-2-yl)piperazin-1-yl)methyl)isoindoline-1,3-dione]
GSPT1 substrate protein remaining % (GSPT1): A (0% ≤ substrate protein remaining % ≤ 80%) | IKZF2 substrate protein remaining % (IKZF2): A (0% ≤ substrate protein remaining % ≤ 80%) | Weel substrate protein remaining % (WEE1): A (0% ≤ substrate protein remaining % ≤ 80%) | IKZF3 substrate protein remaining % (IKZF3): A (0% ≤ substrate protein remaining % ≤ 80%) | IKZF 1 substrate protein remaining % (IKZF1): B (80%< substrate protein remaining %≤ 100%) | CK1a substrate protein remaining % (CK1α): B (80%< substrate protein remaining %≤ 100%)

O=C1CCC(N2C(=O)c3ccc(CN4CCN(c5cccc(F)n5)CC4)cc3C2=O)C(=O)N1 (stereo not drawn) [GT-06527, 2-(2,6-dioxopiperidin-3-yl)-5-((4-(6-fluoropyridin-2-yl)piperazin-1-yl)methyl)isoindoline-1,3-dione]
GSPT1 substrate protein remaining % (GSPT1): A (0% ≤ substrate protein remaining % ≤ 80%) | IKZF2 substrate protein remaining % (IKZF2): A (0% ≤ substrate protein remaining % ≤ 80%) | Weel substrate protein remaining % (WEE1): A (0% ≤ substrate protein remaining % ≤ 80%) | IKZF3 substrate protein remaining % (IKZF3): A (0% ≤ substrate protein remaining % ≤ 80%) | IKZF 1 substrate protein remaining % (IKZF1): B (80%< substrate protein remaining %≤ 100%) | CK1a substrate protein remaining % (CK1α): B (80%< substrate protein remaining %≤ 100%)

O=C1CCC(N2C(=O)c3ccc(CN4CCN(c5ccc(F)cn5)CC4)cc3C2=O)C(=O)N1 (stereo not drawn) [GT-06528, 2-(2,6-dioxopiperidin-3-yl)-5-((4-(5-fluoropyridin-2-yl)piperazin-1-yl)methyl)isoindoline-1,3-dione]
GSPT1 substrate protein remaining % (GSPT1): A (0% ≤ substrate protein remaining % ≤ 80%) | IKZF2 substrate protein remaining % (IKZF2): A (0% ≤ substrate protein remaining % ≤ 80%) | Weel substrate protein remaining % (WEE1): A (0% ≤ substrate protein remaining % ≤ 80%) | IKZF3 substrate protein remaining % (IKZF3): A (0% ≤ substrate protein remaining % ≤ 80%) | IKZF 1 substrate protein remaining % (IKZF1): B (80%< substrate protein remaining %≤ 100%) | CK1a substrate protein remaining % (CK1α): B (80%< substrate protein remaining %≤ 100%)

O=C1CCC(N2C(=O)c3ccc(CN4CCN(c5ncccc5C(F)(F)F)CC4)cc3C2=O)C(=O)N1 (stereo not drawn) [GT-06529, 2-(2,6-dioxopiperidin-3-yl)-5-((4-(3-(trifluoromethyl)pyridin-2-yl)piperazin-1-yl)methyl)isoindoline-1,3-dione]
GSPT1 substrate protein remaining % (GSPT1): A (0% ≤ substrate protein remaining % ≤ 80%) | IKZF2 substrate protein remaining % (IKZF2): A (0% ≤ substrate protein remaining % ≤ 80%) | Weel substrate protein remaining % (WEE1): A (0% ≤ substrate protein remaining % ≤ 80%) | IKZF3 substrate protein remaining % (IKZF3): A (0% ≤ substrate protein remaining % ≤ 80%) | IKZF 1 substrate protein remaining % (IKZF1): B (80%< substrate protein remaining %≤ 100%) | CK1a substrate protein remaining % (CK1α): B (80%< substrate protein remaining %≤ 100%)
